Assay results reported in US8178506B2, “Oligomeric compounds and compositions for use in modulation of small non-coding RNAs” (Regulus Therapeutics Inc., priority 2003, dated 2012).
e = 2'-O-(2-methoxyethyl) (MOE); d = 2'-deoxy (DNA)

Key:
[1] = tested on: 3′-UTR of the LIM domain only 4 (LMO4) gene; experiment: pGL3-LMO4 luciferase assay in HeLa cells; assay type: cell-based, human; conditions: 48 hours
Text: In one embodiment, an expression system based on the pGL3-Control (Promega Corp., Madison Wis.) vector containing a CMV promoter controlling expression of a luciferase reporter sequence was used in transient transfections of HeLa cells with plasmids expressing miRNA or pri-miRNA mimics. To assess the ability of miRNA mimics to bind and regulate the expression of the luciferase reporter gene, two reporter plasmids were constructed: 1) a synthetic DNA fragment comprising two sites perfectly complementary to mir-143 were inserted into the pGL3-Control luciferase reporter vector, to create the pGL3-mir-143 sensor plasmid, and 2) a DNA fragment comprising the 3′-UTR of the LIM domain only 4 (LMO4) gene (predicted to be regulated by mir-143) was inserted into pGL3-Control to create pGL3-LMO4; this fragment was PCR-amplified using a primer beginning at position 1261 of the LMO4 sequence (GenBank Accession NM_006769.2, incorporated herein as SEQ ID: 809) and the downstream primer hybridizing to the poly-A tail. In each of these plasmids, the target site was placed downstream of the luciferase coding sequence and upstream of the polyadenylation signal in the 3′-UTR of the luciferase reporter vector. The unmodified pGL3-Control luciferase reporter vector was used as a control.
HeLa cells were routinely cultured and passaged as described, and on the day before transfection with expression or reporter plasmids, the HeLa cells were seeded onto 24-well plates 50,000 cells/well. Cells were transfected according to standard published procedures with various combinations of plasmids using 2 μg Lipofectamine™ 2000 Reagent (Invitrogen) per μg of plasmid DNA, or, when transfecting oligomeric compounds, 1.25 μg of Lipofectamine™ 2000 Reagent per 100 nM oligonucleotide or double-stranded RNA. The luciferase signal in each well was normalized to the Renilla luciferase (RL) activity produced from a co-transfected plasmid, pRL-CMV, which was transfected at 0.5 μg per well. […]

mir-15a pri-miRNA = mir-15a pri-miRNA expression in T47D cells (real-time RT-PCR); assay type: cell-based, human; conditions: real-time RT-PCR
Summary of the method: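 T47D cells transfected with 100 nM uniform 2′-MOE or gapmer oligomers. Pri-miRNA measured by real-time RT-PCR with a mir-15a-specific primer/probe set, normalized to 5.8S rRNA, expressed as percentage of untreated control RNA levels.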

| Substance | luciferase expression (% lucif. only control) ([1]; 4 nM) | luciferase expression (% lucif. only control) ([1]; 20 nM) | luciferase expression (% lucif. only control) ([1]; 100 nM) | mir-15a pri-miRNA expression % UTC (mir-15a pri-miRNA) [% UTC] |
| --- | --- | --- | --- | --- |
| ds-mir-143: double-stranded RNA of ISIS 342199 hybridized to its perfect complement ISIS 342200 (sense UGAGAUGAAGCACUGUAGCUCA; antisense UGAGCUACAGUGCUUCAUCUCA; RNA, backbone not given here) | 151.6 | 140.1 | 128.4 | – |
| 129690 (antisense TTAGAATACGTCGCGTTATG; sugars from the 5' end e5 d10 e5, all phosphorothioate, methylation of C not given here) [compound 129690] | – | – | – | 121 |
